Reference: patent US10370333B2 (Sanford Burnham Prebys Medical Discovery Institute, priority 2012, dated 2019)
pIC50: −log10 of the molar value.

biological target: TNAP (Homo sapiens (Human), UniProt P05186); assay: TNAP (PPi) inhibition assay, pyrophosphate as substrate; assay type: biochemical
Description: Expression plasmids containing a secreted epitope-tagged TNAP were transfected into COS-1 cells for transient expression. The medium was replaced with Opti-MEM 24 h later and serum-free media containing secreted proteins was collected 60 hours after electroporation. The medium was dialyzed against TBS containing 1 mM MgCl2 and […] (to remove phosphate) and filtered through a […] cellulose acetate filter.
To determine the inhibition selectivity for inhibitor candidates, human TNAP, PLAP or IAP were added to microtiter plates followed by addition of the substrate pNPP (0.5 mM) and activity was measured in 1 M DEA-HCl buffer, pH 9.8 or in 1 M Tris-HCl buffer, pH 7.5, containing 1 mM MgCl2 and 20 μM ZnCl2, in the presence of potential inhibitors (0-30 μM). TNAP, PLAP and IAP activities were adjusted to an approximate λA405 nm, equivalent to 1, measured after 30 min. Residual AP activity in the presence of inhibitors was expressed as percentage of the control activity. To investigate the mechanism of inhibition, double reciprocal plots of enzyme activity (expressed as mA405 nm min−1) vs. substrate concentration were constructed, in the presence of various concentrations of added inhibitors (0-30 μM). The y-axis intercepts of the 1/v vs. 1/[S] plots, were then plotted vs. [I] to graphically extract Ki values as the x-intercept in this plot. […] Inhibitors were further tested and sorted based on their kinetic properties at pH 7.4 using PPi, the relevant natural substrate of TNAP. […] Amounts of released phosphate were measured using the Biomol Green Reagent (Biomol Research Laboratories, Inc., Plymouth Meeting, Pa.).

Compound | pIC50
COc1ccc(Br)cc1S(=O)(=O)Nc1ccn(C)n1 [Example V-9, 5-Bromo-2-methoxy-N-(1-methyl-1H-pyrazol-3-yl)-benzenesulfonamide] | < 6.00
COc1ccc(Br)cc1S(=O)(=O)Nc1cncc(-c2ccc(C(F)(F)F)cc2)c1 [Example III-14, 5-Bromo-2-methoxy-N-(5-(4-(trifluoromethyl)phenyl)pyridin-3-yl)benzenesulfonamide] | 6.00 to 7.00
CCNC(=O)c1ccc(OC)c(S(=O)(=O)Nc2cnc3ccccc3c2)c1 [Example II-16, N-Ethyl-4-methoxy-3-(quinolin-3-ylsulfamoyl)-benzamide] | 6.00 to 7.00
COc1ccc(Br)cc1S(=O)(=O)Nc1ccc(N2CCN(C)CC2)nc1 [Example VIII-19, 5-Bromo-2-methoxy-N-[6-(4-methyl-piperazin-1-yl)-pyridin-3-yl]-benzenesulfonamide] | < 6.00
COc1c(Cl)cccc1S(=O)(=O)Nc1cnc2ccccc2c1 [Example II-12, 3-Chloro-2-methoxy-N-quinolin-3-yl-benzenesulfonamide] | < 6.00
COc1ccc(OC)c(S(=O)(=O)Nc2ccsc2)c1 [Example V-2, 2,5-Dimethoxy-N-(thiophen-3-yl)benzenesulfonamide] | < 6.00
O=C(NC1CCCCC1)c1cncc(NS(=O)(=O)c2cc(Cl)ccc2OC(F)(F)F)c1 [Example XII-8, 5-(5-Chloro-2-(trifluoromethoxy)phenylsulfonamido)-N-cyclohexylnicotinamide] | 6.00 to 7.00
CCOC(=O)c1cncc(NS(=O)(=O)c2cc(Cl)ccc2OC)c1 [Example IV-7, Ethyl 5-(5-chloro-2-methoxyphenylsulfonamido)nicotinate] | > 7.00
COc1cc(Cl)c(Br)cc1S(=O)(=O)Nc1cccnc1 | > 7.00
COc1ccc(Br)cc1S(=O)(=O)Nc1ccc(NCCN(C)C)nc1 [Example VIII-13, 5-Bromo-N-(6-((2-(dimethylamino)ethyl)amino)pyridin-3-yl)-2-methoxybenzenesulfonamide] | < 6.00
COc1ccc(OC)c(S(=O)(=O)Nc2cncc(-c3ccccc3OC)c2)c1 [Example III-34, 2,5-Dimethoxy-N-[5-(2-methoxy-phenyl)-pyridin-3-yl]-benzenesulfonamide] | 6.00 to 7.00
COc1ccc(OC)c(S(=O)(=O)N(C)c2cnc3ccccc3c2)c1 [Example VII-12, 2,5-Dimethoxy-N-methyl-N-(quinolin-3-yl)benzenesulfonamide] | < 6.00
COc1ccc(OC)c(S(=O)(=O)Nc2cncc(-c3ccc(C(F)(F)F)cc3)c2)c1 [Example III-13, 2,5-Dimethoxy-N-(5-(4-(trifluoromethyl)phenyl)pyridin-3-yl)benzenesulfonamide] | 6.00 to 7.00
CCOC(=O)c1cncc(NS(=O)(=O)c2cc(Br)ccc2OC)c1 [Example IV-2, Ethyl 5-(5-bromo-2-methoxyphenylsulfonamido)nicotinate] | > 7.00
COCCNC(=O)c1ccc(OC)c(S(=O)(=O)Nc2cccnc2)c1 [Example I-21, 4-Methoxy-N-(2-methoxy-ethyl)-3-(pyridin-3-ylsulfamoyl)-benzamide] | < 6.00
O=S(=O)(Nc1cncc(-c2cnccn2)c1)c1cc(Br)ccc1OC(F)(F)F [Example XI-21, 5-Bromo-N-(5-(pyrazin-2-yl)pyridin-3-yl)-2-(trifluoromethoxy)benzenesulfonamide] | 6.00 to 7.00
CNc1ccc(NS(=O)(=O)c2cc(Br)ccc2OC)cn1 [Example VIII-5, 5-Bromo-2-methoxy-N-(6-methylamino-pyridin-3-yl)-benzenesulfonamide] | 6.00 to 7.00
COc1ccc(OC(F)(F)F)cc1S(=O)(=O)Nc1cncc(-c2ccccn2)c1 [Example XI-19, N-([2,3′-Bipyridin]-5′-yl)-2-methoxy-5-(trifluoromethoxy)benzenesulfonamide] | 6.00 to 7.00
COc1ccc(-c2ccoc2)cc1S(=O)(=O)Nc1cccnc1 [Example I-9, 5-Furan-3-yl-2-methoxy-N-pyridin-3-yl-benzenesulfonamide] | 6.00 to 7.00
COC(=O)c1ccc2ncc(NS(=O)(=O)c3cc(OC)ccc3OC)cc2c1 [Example IX-8, 3-(2,5-Dimethoxy-benzenesulfonylamino)-quinoline-6-carboxylic Acid Methyl Ester] | 6.00 to 7.00
COCCNC(=O)c1cncc(NS(=O)(=O)c2cc(Br)ccc2OC)c1 [Example IV-21, 5-(5-Bromo-2-methoxyphenylsulfonamido)-N-(2-methoxyethyl)nicotinamide] | 6.00 to 7.00
N#Cc1ccc(-c2cncc(NS(=O)(=O)c3cc(Br)ccc3OC(F)(F)F)c2)cc1 [Example XI-11, 5-Bromo-N-(5-(4-cyanophenyl)pyridin-3-yl)-2-(trifluoromethoxy)benzenesulfonamide] | 6.00 to 7.00
COc1ccc(Br)cc1S(=O)(=O)Nc1cccnn1 [Example V-24, 5-Bromo-2-methoxy-N-pyridazin-3-yl-benzenesulfonamide] | 6.00 to 7.00
COc1ccc(OC)c(S(=O)(=O)Nc2ccnnc2)c1 [Example V-27, 2,5-Dimethoxy-N-pyridazin-4-yl-benzenesulfonamide] | < 6.00
COc1ccc(OC)c(S(=O)(=O)Nc2cncc(-c3ccc(Cl)cc3)c2)c1 [Example III-19, N-[5-(4-Chloro-phenyl)-pyridin-3-yl]-2,5-dimethoxy-benzenesulfonamide] | 6.00 to 7.00
COc1ccc(Cl)cc1S(=O)(=O)Nc1cncc(-c2cccc(Cl)c2)c1 [Example III-54, 5-Chloro-N-[5-(3-chloro-phenyl)-pyridin-3-yl]-2-methoxy-benzenesulfonamide] | 6.00 to 7.00
C=CCN(c1cnc2ccccc2c1)S(=O)(=O)c1cc(Br)ccc1OC [Example VII-10, N-allyl-5-bromo-2-methoxy-N-(quinolin-3-yl)benzenesulfonamide] | < 6.00
COc1ccc(OC)c(S(=O)(=O)Nc2ccc(N3CCCCC3)nc2)c1 [Example VIII-18, 2,5-Dimethoxy-N-(3,4,5,6-tetrahydro-2H-[1,2′]bipyridinyl-5′-yl)-benzenesulfonamide] | < 6.00

Next, values leading:

pIC50 | Compound
> 7.00 | COc1ccccc1-c1cncc(NS(=O)(=O)c2cc(Cl)ccc2OC)c1 [Example III-36, 5-Chloro-2-methoxy-N-[5-(2-methoxy-phenyl)-pyridin-3-yl]-benzenesulfonamide]
> 7.00 | COC(=O)c1ccc2ncc(NS(=O)(=O)c3cc(Br)ccc3OC)cc2c1 [Example IX-4, 3-(5-Bromo-2-methoxy-benzenesulfonylamino)-quinoline-6-carboxylic Acid methyl ester]
> 7.00 | CCCNC(=O)c1cncc(NS(=O)(=O)c2cc(Cl)ccc2OC)c1 [Example IV-29, 5-(5-Chloro-2-methoxyphenylsulfonamido)-N-propylnicotinamide]
> 7.00 | COc1ccc(-c2cncc(NS(=O)(=O)c3cc(OC(F)(F)F)ccc3OC)c2)cc1 [Example XI-2, 2-Methoxy-N-(5-(4-methoxyphenyl)pyridin-3-yl)-5-(trifluoromethoxy)benzenesulfonamide]
> 7.00 | COc1cc(Cl)ccc1S(=O)(=O)Nc1cnc2ccccc2c1 [Example II-10, 4-Chloro-2-methoxy-N-quinolin-3-yl-benzenesulfonamide]
> 7.00 | COc1ccc(Cl)cc1S(=O)(=O)Nc1cncc(-c2ccsc2)c1 [Example III-78, 5-Chloro-2-methoxy-N-(5-(thiophen-3-yl)pyridin-3-yl)benzenesulfonamide]
> 7.00 | COc1ccc(Br)cc1S(=O)(=O)Nc1cncc(-c2ccc(C#N)cc2)c1 [Example III-32, 5-Bromo-N-(5-(4-cyanophenyl)pyridin-3-yl)-2-methoxybenzenesulfonamide]
> 7.00 | O=C(Oc1ccccc1)c1cncc(NS(=O)(=O)c2cc(Cl)ccc2OC(F)(F)F)c1 [Example XII-4, Phenyl 5-(5-chloro-2-(trifluoromethoxy)phenylsulfonamido)nicotinate]
> 7.00 | COc1ccc(OC)c(S(=O)(=O)Nc2cncc(-c3cscn3)c2)c1 [Example III-85, 2,5-Dimethoxy-N-(5-(thiazol-4-yl)pyridin-3-yl)benzenesulfonamide]
> 7.00 | O=S(=O)(Nc1cncc(-c2cncs2)c1)c1cc(Br)ccc1OC(F)(F)F [Example XI-26, 5-bromo-N-(5-(thiazol-5-yl)pyridin-3-yl)-2-(trifluoromethoxy)benzenesulfonamide]
> 7.00 | COc1ccc(Br)cc1S(=O)(=O)Nc1cncc(-c2cscn2)c1 [Example III-86, 5-Bromo-2-methoxy-N-(5-(thiazol-4-yl)pyridin-3-yl)benzenesulfonamide]
> 7.00 | O=C(Oc1ccccc1)c1cncc(NS(=O)(=O)c2cc(Br)ccc2OC(F)(F)F)c1 [Example XII-12, Phenyl 5-(5-bromo-2-(trifluoromethoxy)phenylsulfonamido)nicotinate]
> 7.00 | COc1ccc(-c2cncc(NS(=O)(=O)c3cc(OC)ccc3OC)c2)cc1 [Example III-1]
> 7.00 | COc1ccc(Cl)cc1S(=O)(=O)Nc1cncc(-c2cscn2)c1 [Example III-87, 5-Chloro-2-methoxy-N-(5-(thiazol-4-yl)pyridin-3-yl)benzenesulfonamide]
